Assay results reported in paper PMC4105567, “Aurora Kinases as Druggable Targets in Pediatric Leukemia: Heterogeneity in Target Modulation Activities and Cytotoxicity by Diverse Novel Therapeutic Agents” (PLoS ONE, 2014).

How the values were obtained:
C1 B-ALL cell line = assay: Cytotoxicity assay, C1; type: cell-based, human; conditions: four days in culture, Alamar blue assay or automated microscopy, ± SD, three experiments
Protocol: (§1) Cell lines were cultured in Opti-MEM medium (Gibco, Life Technologies Corporation, Burlington, Ontario) supplemented with 10% heat inactivated fetal bovine serum (FBS) (Gibco), 100 units/ml penicillin and 100 units/ml streptomycin (Gibco) and 0.05 mM 2-mercaptoethanol (Sigma-Aldrich, Oakville, Ontario) in T25 flasks (Nalge Nunc, Rochester, New York) or T75 flasks (Corning Incorporated, Corning, New York). All cell cultures were maintained at 37°C in a humidified incubator with 5% CO2.
(§2) For cytotoxicity profiling of Aurora kinase inhibitors against leukemia cell lines, inhibitors or vehicle control (DMSO, Sigma-Aldrich) were diluted in 100 µl of Opti-MEM per well in 96 well plates (Grenier Bio-One, Monroe, North Carolina) in triplicate at final concentrations ranging from 1×10^−6 to 10 µM. 1×10^4 cells per well were seeded and plates were incubated for 4 days. Following incubation for 4 days, cell survival was quantified by Alamar blue assay (Invitrogen) or automated inverted microscopy using the Celigo Cell Cytometer (Cyntellect, San Diego, California). […] During this period of incubation, the absorbance at 570–620 nm was measured (Opsys MR Plate Reader, Dynex Technologies, Chantilly, Virginia) at various time points, depending on the cell line or sample. Percent survival was calculated by comparing the absorbance ratio of the test well to the control well multiplied by 100%, as indicated in the following formula: […]
(§3) For automated inverted microscopy, the number of cells in each well was determined using the direct cell counting application as described previously. Briefly, following adjustment of image acquisition settings for bright-field imaging, the wells containing cells and appropriate dilutions of inhibitors were individually scanned. Based on these images, analysis parameters, including intensity threshold and cell diameter, were modified for optimal inclusion of viable cells in treated and control wells. These parameters were applied for subsequent replicates involving the same leukemia cell line or sample. The percent survival was then calculated as a ratio of the number of cells in treated wells to the number of cells in control wells multiplied by 100%. Given that Aurora kinase inhibitors interfere with cytokinesis, cells that are committed to death may still contain enlarging but intact cytoplasmic content before the eventual loss of cytoplasmic membrane integrity. The accuracy of Alamar blue assay may be, in theory, affected by the timing of these events.

B1 B-ALL cell line = assay: Cytotoxicity assay, B1; type: cell-based, human; conditions: four days in culture, Alamar blue assay or automated microscopy, ± SD, three experiments
Protocol: as §1, §2, §3

UOCB1 B-ALL cell line = assay: Cytotoxicity assay, UOCB1; type: cell-based, human; conditions: four days in culture, Alamar blue assay or automated microscopy, ± SD, three experiments
Protocol: as §1, §2, §3

Nalm6 B-ALL cell line = assay: Cytotoxicity assay, Nalm6; type: cell-based, human; conditions: four days in culture, Alamar blue assay or automated microscopy, ± SD, three experiments
Protocol: as §1, §2, §3

CEM T-ALL cell line = assay: Cytotoxicity assay, CEM; type: cell-based, human; conditions: four days in culture, Alamar blue assay or automated microscopy, ± SD, three experiments
Protocol: as §1, §2, §3

Molt-3 T-ALL cell line = assay: Cytotoxicity assay, Molt-3; type: cell-based, human; conditions: T-ALL cell line Molt-3, four days in culture, Alamar blue assay or automated microscopy, ± SD, three experiments
Protocol: as §1, §2, §3

Molm13 AML cell line = assay: Cytotoxicity assay, Molm13; type: cell-based, human; conditions: four days in culture, Alamar blue assay or automated microscopy, ± SD, three experiments
Protocol: as §1, §2, §3

MV4-11 AML cell line = assay: Cytotoxicity assay, MV4-11; type: cell-based, human; conditions: AML cell line MV4-11, four days in culture, Alamar blue assay or automated microscopy, ± SD, three experiments
Protocol: as §1, §2, §3

TIB-202 AML cell line = assay: Cytotoxicity assay, TIB-202; type: cell-based, human; conditions: AML cell line TIB-202, four days in culture, Alamar blue assay or automated microscopy, ± SD, three experiments
Protocol: as §1, §2, §3

NB4 APML cell line = assay: Cytotoxicity assay, NB4; type: cell-based, human; conditions: four days in culture, Alamar blue assay or automated microscopy, ± SD, three experiments
Protocol: as §1, §2, §3

HL-60 APML cell line = assay: Cytotoxicity assay, HL-60; type: cell-based, human; conditions: APML cell line HL-60, four days in culture, Alamar blue assay or automated microscopy, ± SD, three experiments
Protocol: as §1, §2, §3

HL-60 RA APML cell line = assay: Cytotoxicity assay, HL-60 RA; type: cell-based, human; conditions: APML cell line HL-60 RA, four days in culture, Alamar blue assay or automated microscopy, ± SD, three experiments
Protocol: as §1, §2, §3

Normal Lymphocytes = assay: Cytotoxicity assay, normal lymphocytes; type: cell-based, human; conditions: normal lymphocytes (control for non-leukemia cytotoxicity), four days in culture, ± SD, three experiments
Protocol: (§4) These include B-ALL (Patient #1), relapsed AML (Patient #2), AML/CML (Patient #3), infant ALL (Patient #4), and initial ALL presenting with secondary AML (Patient #5). […] The diluted sample was then layered on a Ficoll-Paque (GE Healthcare, Piscataway, New Jersey) gradient at a 1∶2 ratio of Ficoll to diluted sample. Samples were then centrifuged 1800 rpm for 20 minutes at room temperature. The buffy coat was removed with a pipette and transferred to a new centrifuge tube and diluted with PBS. After an additional centrifugation at 1200 rpm, the white blood cell pellet was washed with PBS and centrifuged one last time. Cells were re-suspended in Opti-MEM and viable cells were counted using trypan blue (Invitrogen, Life Technologies Corporation, Burlington, Ontario) exclusion on a haemocytometer. An identical protocol was followed for the isolation of white blood cells, referred to as “normal lymphocytes” in the following paragraphs, from healthy volunteers. Samples grown in culture for up to six months were cultured in Opti-MEM medium supplemented with 10% heat inactivated FBS, penicillin/streptomycin and 2-mercaptoethanol.
as §2, §3

Bone Marrow Stroma = assay: Cytotoxicity assay, bone marrow stroma; type: cell-based, human; conditions: bone marrow stroma (control for non-leukemia cytotoxicity), four days in culture, ± SD, three experiments
Protocol: as §2, §3

[1] = test system: Patient #2 relapsed AML primary leukemia cells; assay: Cytotoxicity assay, primary sample Patient #2; type: cell-based, human; conditions: four days in culture, Alamar blue assay or automated microscopy, one complete study
Protocol: as §4, §2, §3

[2] = test system: Patient #3 AML/CML primary leukemia cells; assay: Cytotoxicity assay, primary sample Patient #3; type: cell-based, human; conditions: four days in culture, Alamar blue assay or automated microscopy, one complete study
Protocol: as §4, §2, §3

[3] = test system: Patient #4 infant leukemia primary cells; assay: Cytotoxicity assay, primary sample Patient #4; type: cell-based, human; conditions: four days in culture, Alamar blue assay or automated microscopy, one complete study
Protocol: as §4, §2, §3

Aurora-B = test system: Aurora-B; design: method as in earlier work; conditions: literature values; ref [10],[22],[27],[40],[44]–[64] as listed per inhibitor in Table 1; read-out: Targets (IC50 Value): Aurora-B; cited from earlier work

In the case of `O=C(Nc1c[nH]nc1-c1nc2ccc(CN3CCOCC3)cc2[nH]1)NC1CC1` [AT9283], the IC50 (C1 B-ALL cell line; Homo sapiens, 96 h) is reported as 0.6 nM, the IC50 (B1 B-ALL cell line; Homo sapiens, 96 h) is reported as 60 ± 30 nM and the IC50 (UOCB1 B-ALL cell line; Homo sapiens, UoC-B1, 96 h) is reported as 0.08 nM. The IC50 (Nalm6 B-ALL cell line; Homo sapiens, NALM-6, 96 h) was 6 ± 3 nM, the IC50 (CEM T-ALL cell line; Homo sapiens, 96 h) was 0.7 nM and the IC50 (Molt-3 T-ALL cell line; Homo sapiens, 96 h) was 0.4 nM. The IC50 (Molm13 AML cell line; Homo sapiens, MOLM-13, 96 h) was 5 ± 3 nM, the IC50 (MV4-11 AML cell line; Homo sapiens, 96 h) was 3 ± 2 nM and the IC50 (TIB-202 AML cell line; Homo sapiens, 96 h) was 800 ± 200 nM. For the same compound, the IC50 (NB4 APML cell line; Homo sapiens, 96 h) was 60 ± 30 nM, the IC50 (HL-60 APML cell line; Homo sapiens, 96 h) was 50 ± 20 nM and the IC50 (HL-60 RA APML cell line; Homo sapiens, 96 h) was 3 ± 2 nM. It also gave an IC50 (Normal Lymphocytes; Homo sapiens, Lymphocyte, 96 h) of 9000 ± 1000 nM, an IC50 (Bone Marrow Stroma; Homo sapiens, 96 h) of 5000 ± 2000 nM and an IC50 ([1]; Homo sapiens, 96 h) of 80 nM. For the same compound, the IC50 ([2]; Homo sapiens, 96 h) was 1000 nM, the IC50 ([3]; Homo sapiens, 96 h) was 5000 nM and the IC50 (Aurora-B) was 3 nM.
In the case of `CCN1CCN(C(=O)Cc2ccc(Nc3ncc(F)c(Nc4ccc(C(=O)Nc5ccccc5Cl)cc4)n3)cc2)CC1` [Aurora A Inhibitor I], the IC50 (C1 B-ALL cell line) is reported as 900 ± 200 nM, the IC50 (B1 B-ALL cell line) is reported as 700 ± 100 nM and the IC50 (UOCB1 B-ALL cell line) is reported as 20 ± 9 nM. For the same compound, the IC50 (Nalm6 B-ALL cell line) was 400 ± 80 nM, the IC50 (CEM T-ALL cell line) was 300 ± 200 nM and the IC50 (Molt-3 T-ALL cell line) was 300 ± 200 nM. It also gave an IC50 (Molm13 AML cell line) of 2000 ± 1000 nM, an IC50 (MV4-11 AML cell line) of 400 ± 100 nM and an IC50 (TIB-202 AML cell line) of 5 ± 2 nM. The IC50 (NB4 APML cell line) was 700 ± 50 nM, the IC50 (HL-60 APML cell line) was 2000 ± 1000 nM and the IC50 (HL-60 RA APML cell line) was 1000 ± 600 nM. For the same compound, the IC50 (Normal Lymphocytes) was 3000 ± 500 nM, the IC50 (Bone Marrow Stroma) was 4000 ± 500 nM and the IC50 [1] was 1000 nM. For the same compound, the IC50 [2] was 5000 nM, the IC50 [3] was 8000 nM and the IC50 (Aurora-B) was 3400 nM.
In the case of `CCS(=O)(=O)Nc1ccc2c(c1)/C(=C(/Nc1ccc(CN3CCCCC3)cc1)c1ccccc1)C(=O)N2` [Hesperadin], the IC50 (C1 B-ALL cell line; Homo sapiens, 96 h) is reported as 0.06 nM, the IC50 (B1 B-ALL cell line; Homo sapiens, 96 h) is reported as 0.007 nM and the IC50 (UOCB1 B-ALL cell line; Homo sapiens, UoC-B1, 96 h) is reported as < 0.001 nM. For the same compound, the IC50 (Nalm6 B-ALL cell line; Homo sapiens, NALM-6, 96 h) was 0.004 nM, the IC50 (CEM T-ALL cell line; Homo sapiens, 96 h) was < 0.001 nM and the IC50 (Molt-3 T-ALL cell line; Homo sapiens, 96 h) was < 0.001 nM. The IC50 (Molm13 AML cell line; Homo sapiens, MOLM-13, 96 h) was 0.3 nM, the IC50 (MV4-11 AML cell line; Homo sapiens, 96 h) was 0.005 nM and the IC50 (TIB-202 AML cell line; Homo sapiens, 96 h) was 0.003 nM. It also gave an IC50 (NB4 APML cell line; Homo sapiens, 96 h) of 4 ± 1 nM, an IC50 (HL-60 APML cell line; Homo sapiens, 96 h) of 6 ± 3 nM and an IC50 (HL-60 RA APML cell line; Homo sapiens, 96 h) of 0.05 nM. For the same compound, the IC50 (Normal Lymphocytes; Homo sapiens, Lymphocyte, 96 h) was 2000 ± 1000 nM, the IC50 (Bone Marrow Stroma; Homo sapiens, 96 h) was 2000 ± 900 nM and the IC50 ([1]; Homo sapiens, 96 h) was 0.3 nM. The IC50 ([2]; Homo sapiens, 96 h) was 3000 nM, the IC50 ([3]; Homo sapiens, 96 h) was 2000 nM and the IC50 (Aurora-B) was 250 nM.
